{"source": "paper PMC3490489", "about": "(Clinical cancer research : an official journal of the …, 2012)", "key": {"[1]": {"details": "cited from earlier work"}, "[2]": {"biological_target": "T1, UGT1A9 (Homo sapiens, UniProt O60656)", "T1 sequence (O60656 26-530)": "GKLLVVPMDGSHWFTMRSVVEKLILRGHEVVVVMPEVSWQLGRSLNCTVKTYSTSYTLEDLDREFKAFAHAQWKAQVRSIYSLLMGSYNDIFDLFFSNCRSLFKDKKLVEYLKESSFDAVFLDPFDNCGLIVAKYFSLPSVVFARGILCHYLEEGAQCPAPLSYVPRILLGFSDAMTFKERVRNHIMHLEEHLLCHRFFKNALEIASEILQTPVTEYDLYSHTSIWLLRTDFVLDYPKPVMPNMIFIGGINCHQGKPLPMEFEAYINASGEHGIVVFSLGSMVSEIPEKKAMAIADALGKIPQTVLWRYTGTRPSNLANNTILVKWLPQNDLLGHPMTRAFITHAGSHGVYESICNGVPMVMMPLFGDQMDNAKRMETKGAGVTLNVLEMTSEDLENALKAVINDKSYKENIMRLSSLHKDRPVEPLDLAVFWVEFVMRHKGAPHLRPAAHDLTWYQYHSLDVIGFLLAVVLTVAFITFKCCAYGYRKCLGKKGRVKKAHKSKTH", "test": "Inhibition of UGT1A9-mediated sorafenib glucuronidation by azole antifungals", "type": "biochemical"}, "[3]": {"tested_on": "AML cell lines", "details": "cited from earlier work"}, "[4]": {"type": "in vivo, human"}, "[5]": {"tested_on": "human liver microsomes (HLM)", "test": "Sorafenib N-oxide formation in microsomes from human liver samples", "type": "in vitro ADME", "details": "10 to 15 year age group, sorafenib 10 µM, 60 min"}, "[6]": {"biological_target": "T1, UGT1A9", "details": "panel of purified human UGT enzymes"}, "[7]": {"substrate": "CNC(=O)c1cc(Oc2ccc(NC(=O)Nc3ccc(Cl)c(C(F)(F)F)c3)cc2)ccn1", "test": "not read", "details": "other: purified human UGT1A9"}}, "note": "Read-outs that look alike come from different tables or passages of the source."}
{"molecule": "CCNCCNC(=O)c1c(C)[nH]c(/C=C2\\C(=O)Nc3ccc(F)cc32)c1C", "note": "[N-desethyl-sunitinib]", "values": [{"measurement": "Share of total pharmacologic activity accounted for by the active metabolite", "setting": "[1]; cancer patients given sunitinib", "result": "30–50%"}]}
{"molecule": "CC(=O)N1CCN(c2ccc(OCC3COC(Cn4ccnc4)(c4ccc(Cl)cc4Cl)O3)cc2)CC1", "note": "(stereo not drawn) [ketoconazole, reference compound]", "values": [{"measurement": "Effect of ketoconazole on sorafenib plasma clearance", "setting": "[1]; healthy subjects", "result": "no effect on sorafenib plasma clearance"}, {"measurement": "Ki", "setting": "[2]", "result": 2200, "unit": "nM"}]}
{"molecule": "CC[C@@H]([C@H](C)O)n1ncn(-c2ccc(N3CCN(c4ccc(OC[C@@H]5CO[C@@](Cn6cncn6)(c6ccc(F)cc6F)C5)cc4)CC3)cc2)c1=O", "note": "[posaconazole, reference compound]", "values": [{"measurement": "Effect on sorafenib N-oxide production in vivo", "setting": "children given sorafenib concurrent with the azole", "result": "reduced N-oxide production to negligible levels"}, {"measurement": "Inhibition of sorafenib glucuronidation in vitro", "setting": "[2]", "result": "weak inhibitors of sorafenib glucuronidation"}]}
{"molecule": "CNC(=O)c1cc(Oc2ccc(NC(=O)Nc3ccc(Cl)c(C(F)(F)F)c3)cc2)cc[n+]1[O-]", "note": "[sorafenib N-oxide]", "values": [{"measurement": "N-oxide metabolite ratio", "setting": "first patient, day 383, concurrent oral voriconazole 150 mg twice daily", "result": 0.05}, {"measurement": "N-oxide metabolite ratio", "setting": "second patient, day 575, concurrent oral voriconazole 150 mg twice daily", "result": 0.05}, {"measurement": "N-oxide metabolite ratio", "setting": "second patient, day 607, concurrent oral voriconazole 150 mg twice daily", "result": 0.09}, {"measurement": "Rate of conversion of sorafenib to sorafenib N-oxide", "setting": "[1]; adults with AML", "result": "< 10", "unit": "%"}, {"measurement": "Sorafenib N-oxide as share of circulating sorafenib concentrations", "setting": "[1]; healthy subjects and cancer patients", "result": "approximately 10%"}, {"measurement": "Rate of conversion of sorafenib to sorafenib N-oxide", "setting": "[1]; twelve children with relapsed/refractory AML", "result": 33, "unit": "%"}, {"measurement": "Cytotoxic activity", "setting": "[3]", "result": "exhibited cytotoxic activity"}, {"measurement": "Mean sorafenib N-oxide metabolite ratio (metabolite Css,ave / sorafenib Css,ave)", "setting": "[4]; all patients", "result": "~ 0.30"}, {"measurement": "CV% of sorafenib N-oxide metabolite ratio", "setting": "[4]; boys greater than 10 years", "result": 11, "unit": "%"}, {"measurement": "CV% of sorafenib N-oxide metabolite ratio", "setting": "[4]; boys ≤ 10 years", "result": 39, "unit": "%"}, {"measurement": "Conversion to sorafenib N-oxide", "setting": "[4]; boys ≤ 10 years", "result": 40, "unit": "%"}, {"measurement": "Sorafenib N-oxide metabolite ratio", "setting": "[4]; boys ≤ 10 years", "result": "0.40±0.15"}, {"measurement": "Mean conversion to sorafenib N-oxide", "setting": "[4]; children 1 to 19 years", "result": 27, "unit": "%"}, {"measurement": "N-oxide metabolite ratio, boys versus girls", "setting": "[4]; children ≤ 10 years", "result": "approximately 2 fold"}, {"measurement": "Circulating concentrations of sorafenib N-oxide, mean", "setting": "[4]; children, sorafenib 200 mg/m^2", "result": "2 to 3", "unit": "µM"}, {"measurement": "Sorafenib N-oxide metabolite ratio", "setting": "[4]; females, all ages", "result": "0.22±0.10"}, {"measurement": "CV% of sorafenib N-oxide metabolite ratio", "setting": "[4]; girls greater than 10 years", "result": 20, "unit": "%"}, {"measurement": "CV% of sorafenib N-oxide metabolite ratio", "setting": "[4]; girls ≤ 10 years", "result": 59, "unit": "%"}, {"measurement": "Sorafenib N-oxide metabolite ratio", "setting": "[4]; girls ≤ 10 years", "result": "0.22±0.12"}, {"measurement": "Sorafenib N-oxide metabolite ratio", "setting": "[4]; males older than 10 years", "result": "0.18±0.021"}, {"measurement": "Sorafenib N-oxide metabolite ratio", "setting": "[4]; males, all ages", "result": "0.26±0.15"}, {"measurement": "Sorafenib N-oxide formation velocity, median", "setting": "[5]; females", "result": "−1.5 log[µM/min/mg HLM]"}, {"measurement": "Sorafenib N-oxide formation velocity, median", "setting": "[5]; males", "result": "−1.1 log[µM/min/mg HLM]"}]}
{"molecule": "CNC(=O)c1cc(Oc2ccc(NC(=O)Nc3ccc(Cl)c(C(F)(F)F)c3)cc2)ccn1", "note": "[sorafenib, reference compound]", "values": [{"measurement": "Enzyme responsible for sorafenib glucuronidation", "setting": "[6]", "result": "UGT1A9 is primarily responsible for sorafenib glucuronidation"}, {"measurement": "CV% of steady-state sorafenib CL/F", "setting": "[4]; all 30 patients", "result": 58, "unit": "%"}, {"measurement": "Steady-state sorafenib apparent oral clearance (CL/F), mean±standard deviation", "setting": "[4]; all 30 patients", "result": "64±37", "unit": "mL/min/m^2"}]}
{"molecule": "C[C@@H](c1ncncc1F)[C@](O)(Cn1cncn1)c1ccc(F)cc1F", "note": "[voriconazole]", "values": [{"measurement": "Inhibition of sorafenib glucuronidation in vitro", "setting": "[2]", "result": "weak inhibitors of sorafenib glucuronidation"}]}
{"molecule": "UGT1A9 (Homo sapiens) (protein) GKLLVVPMDGSHWFTMRSVVEKLILRGHEVVVVMPEVSWQLGRSLNCTVKTYSTSYTLEDLDREFKAFAHAQWKAQVRSIYSLLMGSYNDIFDLFFSNCRSLFKDKKLVEYLKESSFDAVFLDPFDNCGLIVAKYFSLPSVVFARGILCHYLEEGAQCPAPLSYVPRILLGFSDAMTFKERVRNHIMHLEEHLLCHRFFKNALEIASEILQTPVTEYDLYSHTSIWLLRTDFVLDYPKPVMPNMIFIGGINCHQGKPLPMEFEAYINASGEHGIVVFSLGSMVSEIPEKKAMAIADALGKIPQTVLWRYTGTRPSNLANNTILVKWLPQNDLLGHPMTRAFITHAGSHGVYESICNGVPMVMMPLFGDQMDNAKRMETKGAGVTLNVLEMTSEDLENALKAVINDKSYKENIMRLSSLHKDRPVEPLDLAVFWVEFVMRHKGAPHLRPAAHDLTWYQYHSLDVIGFLLAVVLTVAFITFKCCAYGYRKCLGKKGRVKKAHKSKTH", "values": [{"measurement": "Km", "setting": "[7]", "result": "3.6 ± 0.22", "unit": "µM"}]}
